Reference: PubChem BioAssay AID328 (DTP/NCI, 2004)
“And” between values parts separate entries of the source, which are not always exact repeats. Identical values can stand only once. Toxic doses and inconclusive results are not listed.

Tested on: BDF1 mice, P388 leukemia ip, median survival T/C
Assay: NCI In Vivo Anticancer Drug Screen. Data for tumor model P388 Leukemia (intraperitoneal) in B6D2F1 (BDF1) mice
Settings: endpoint: median survival time, higher = longer survival
Procedure, shortened: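 Survival ratio, drug arm over vehicle arm, in mice with a transplanted tumour.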

[1] = dose: 100.0 mg/kg/injection, schedule: Q01DX009 (ip), vehicle: saline with Tween-80
[2] = dose: 200.0 mg/kg/injection, schedule: Q01DX009 (ip), vehicle: saline with Tween-80
[3] = dose: 25.0 mg/kg/injection, schedule: Q01DX009 (ip), vehicle: saline
[4] = dose: 50.0 mg/kg/injection, schedule: Q01DX009 (ip), vehicle: saline
[5] = dose: 100.0 mg/kg/injection, schedule: Q04DX003 (ip), vehicle: saline with Tween-80
[6] = dose: 400.0 mg/kg/injection, schedule: Q04DX003 (ip), vehicle: saline with Tween-80
[7] = dose: 200.0 mg/kg/injection, schedule: Q04DX003 (ip), vehicle: saline with Tween-80
[8] = dose: 50.0 mg/kg/injection, schedule: Q01DX009 (ip), vehicle: Klucel (hydroxypropylcellulose) (HPC)
[9] = dose: 100.0 mg/kg/injection, schedule: Q01DX009 (ip), vehicle: Klucel (hydroxypropylcellulose) (HPC)
[10] = dose: 50.0 mg/kg/injection, schedule: Q01DX009 (ip), vehicle: saline with Tween-80
[11] = dose: 12.5 mg/kg/injection, schedule: Q01DX009 (ip), vehicle: saline with Tween-80
[12] = dose: 200.0 mg/kg/injection, schedule: Q01DX009 (ip), vehicle: Klucel (hydroxypropylcellulose) (HPC)

CCSC(C(O)C(O)C(O)C(O)CO)n1ccc(=O)[nH]c1=O (configuration not stated)
T/C (dose: 12.5 mg/kg/injection, schedule: Q01DX001 (ip), vehicle: saline): 100 % of control | T/C (dose: 25.0 mg/kg/injection, schedule: Q01DX001 (ip), vehicle: saline): 100 % of control | T/C (dose: 50.0 mg/kg/injection, schedule: Q01DX001 (ip), vehicle: saline): 100 % of control

OCC1OC(Nc2ccccc2/C=N\O)C(O)C1O (configuration not stated)
T/C [1]: 111 % of control | T/C [2]: 94 % of control

Cc1c(C)c2c(c(C)c1O)CCC(C)(CCCC(C)CCCC(C)CCCC(C)C)O2 (configuration not stated)
T/C (dose: 30.0 IU/animal/injection, schedule: Q04DX003 (ip), vehicle: olive oil, sesame oil, peanut oil): 100 % of control | T/C (dose: 85.0 IU/animal/injection, schedule: Q04DX003 (ip), vehicle: olive oil, sesame oil, peanut oil): 100 % of control

Cc1cc(NC(=O)NCCOc2ccc(N3C(N)=NC(N)=NC3(C)C)cc2Cl)ccc1S(=O)(=O)F
T/C (dose: 12.5 mg/kg/injection, schedule: Q01DX009 (ip), vehicle: saline): 100 % of control | T/C [3]: 113 % of control | T/C [4]: 122 % of control

O=C(COc1ccc([N+](=O)[O-])cc1)Nc1cccnc1
T/C [5]: 100 % of control | T/C [6]: 100 % of control

Nc1ccccc1CCc1ccccc1N
T/C [1]: 104 % of control | T/C [5]: 95 % of control | T/C [2]: 100 % of control | T/C [7]: 95 % of control | T/C (dose: 400.0 mg/kg/injection, schedule: Q01DX009 (ip), vehicle: saline with Tween-80): 100 % of control | T/C [6]: 108 % of control

O=C(CCl)N1CCc2ccccc21
T/C (dose: 25.0 mg/kg/injection, schedule: Q01DX009 (ip), vehicle: Klucel (hydroxypropylcellulose) (HPC)): 104 % of control | T/C (dose: 25.0 mg/kg/injection, schedule: Q04DX003 (ip), vehicle: Klucel (hydroxypropylcellulose) (HPC)): 90 % of control | T/C [8]: 100 % of control | T/C (dose: 50.0 mg/kg/injection, schedule: Q04DX003 (ip), vehicle: Klucel (hydroxypropylcellulose) (HPC)): 100 % of control | T/C [9]: 86 % of control | T/C (dose: 100.0 mg/kg/injection, schedule: Q04DX003 (ip), vehicle: Klucel (hydroxypropylcellulose) (HPC)): 95 % of control

Cc1nc2nc(N)nc(N)c2nc1C
T/C [10]: 100 % of control | T/C [1]: 104 % of control | T/C [5]: 95 % of control | T/C [2]: 100 % of control | T/C [7]: 95 % of control

Cn1c(=O)c2[nH]c(CN(CCCl)CCCl)nc2n(C)c1=O
T/C (dose: 0.88 mg/kg/injection, schedule: Q04DX003 (ip), vehicle: saline with Tween-80): 100 % of control | T/C (dose: 1.32 mg/kg/injection, schedule: Q04DX003 (ip), vehicle: saline with Tween-80): 109 % of control | T/C (dose: 2.0 mg/kg/injection, schedule: Q04DX003 (ip), vehicle: saline with Tween-80): 119 % of control | T/C (dose: 2.4 mg/kg/injection, schedule: Q01DX009 (ip), vehicle: saline with Tween-80): 154 % of control | T/C (dose: 3.7 mg/kg/injection, schedule: Q01DX009 (ip), vehicle: saline with Tween-80): 160 % of control | T/C (dose: 5.56 mg/kg/injection, schedule: Q01DX009 (ip), vehicle: saline with Tween-80): 163 % of control and 178 % of control | T/C (dose: 8.33 mg/kg/injection, schedule: Q01DX009 (ip), vehicle: saline with Tween-80): 172 % of control | T/C [11]: 201 % of control

ClC1(Cl)OC(Cl)(Cl)C(Cl)(Cl)OC1(Cl)Cl
T/C [8]: 95 % of control | T/C [9]: 95 % of control | T/C [12]: 109 % of control

COc1cc(/C=N/NC(=O)C[n+]2ccccc2)cc(OC)c1
T/C [3]: 104 % of control | T/C (dose: 25.0 mg/kg/injection, schedule: Q04DX003 (ip), vehicle: saline): 109 % of control | T/C [4]: 100 % of control | T/C (dose: 50.0 mg/kg/injection, schedule: Q04DX003 (ip), vehicle: saline): 104 % of control | T/C (dose: 100.0 mg/kg/injection, schedule: Q04DX003 (ip), vehicle: saline): 86 % of control

CCCCCCCCCCCCCSCCCCCCCCSCCCCCCCCCCCCC
T/C (dose: 100.0 mg/kg/injection, schedule: Q01DX001 (ip), vehicle: saline with Tween-80): 95 % of control | T/C (dose: 200.0 mg/kg/injection, schedule: Q01DX001 (ip), vehicle: saline with Tween-80): 90 % of control | T/C (dose: 400.0 mg/kg/injection, schedule: Q01DX001 (ip), vehicle: saline with Tween-80): 100 % of control

CCOC(=O)C(C)NC(=O)N(C)C12CC3CC(CC(C3)C1)C2 (configuration not stated)
T/C [9]: 113 % of control | T/C [12]: 117 % of control | T/C (dose: 400.0 mg/kg/injection, schedule: Q01DX009 (ip), vehicle: Klucel (hydroxypropylcellulose) (HPC)): 119 % of control

O=[N+]([O-])c1ccc(/C=N\Nc2ccc([N+](=O)[O-])cn2)cc1
T/C [11]: 110 % of control | T/C (dose: 25.0 mg/kg/injection, schedule: Q01DX009 (ip), vehicle: saline with Tween-80): 120 % of control | T/C [10]: 120 % of control | T/C [1]: 90 % of control | T/C (dose: 100.0 mg/kg/injection, schedule: Q04DX003 (ip), vehicle: saline sonified): 100 % of control | T/C [2]: 90 % of control | T/C (dose: 200.0 mg/kg/injection, schedule: Q04DX003 (ip), vehicle: saline sonified): 110 % of control | T/C (dose: 400.0 mg/kg/injection, schedule: Q04DX003 (ip), vehicle: saline sonified): 120 % of control

Cc1ccc(-c2nc3sccn3c2/C=N/NC(N)=S)cc1
T/C (dose: 100.0 mg/kg/injection, schedule: Q01DX001 (ip), vehicle: Klucel (hydroxypropylcellulose) (HPC)): 100 % of control | T/C (dose: 400.0 mg/kg/injection, schedule: Q01DX001 (ip), vehicle: Klucel (hydroxypropylcellulose) (HPC)): 95 % of control

[CH3][Sn]([CH3])([CH3])[O]C(=O)CCl
T/C (dose: 0.75 mg/kg/injection, schedule: Q01DX009 (ip), vehicle: saline): 120 % of control | T/C (dose: 1.5 mg/kg/injection, schedule: Q01DX009 (ip), vehicle: saline): 106 % of control

CN(C(N)=O)c1c(O)nc(N)[nH]c1=O
T/C (dose: 12.5 mg/kg/injection, schedule: Q01DX009 (ip), vehicle: water): 106 % of control | T/C (dose: 25.0 mg/kg/injection, schedule: Q04DX003 (ip), vehicle: water): 106 % of control | T/C (dose: 50.0 mg/kg/injection, schedule: Q01DX009 (ip), vehicle: water): 88 % of control | T/C (dose: 50.0 mg/kg/injection, schedule: Q04DX003 (ip), vehicle: water): 100 % of control | T/C (dose: 100.0 mg/kg/injection, schedule: Q01DX009 (ip), vehicle: water): 91 % of control | T/C (dose: 100.0 mg/kg/injection, schedule: Q04DX003 (ip), vehicle: water): 106 % of control | T/C (dose: 200.0 mg/kg/injection, schedule: Q04DX003 (ip), vehicle: water): 106 % of control

CC(C)(C)C[CH2][Hg][Cl]
T/C (dose: 3.13 mg/kg/injection, schedule: Q04DX003 (ip), vehicle: saline): 105 % of control | T/C (dose: 6.25 mg/kg/injection, schedule: Q04DX003 (ip), vehicle: saline): 100 % of control | T/C (dose: 8.25 mg/kg/injection, schedule: Q04DX003 (ip), vehicle: saline sonified): 109 % of control | T/C (dose: 12.5 mg/kg/injection, schedule: Q04DX003 (ip), vehicle: saline sonified): 113 % of control | T/C (dose: 18.75 mg/kg/injection, schedule: Q04DX003 (ip), vehicle: saline sonified): 100 % of control

O=C1C=C(Nc2ccc(Cl)cc2)C(Nc2ccc(Cl)cc2)=CC1=O
T/C (dose: 62.5 mg/kg/injection, schedule: Q01DX009 (ip), vehicle: saline with Tween-80): 89 % of control | T/C (dose: 125.0 mg/kg/injection, schedule: Q01DX009 (ip), vehicle: saline with Tween-80): 87 % of control | T/C (dose: 250.0 mg/kg/injection, schedule: Q01DX009 (ip), vehicle: saline with Tween-80): 91 % of control

CN(C)c1ccc(/C=C/c2ccnc3cc(Cl)ccc23)cc1
T/C [10]: 118 % of control | T/C [1]: 100 % of control | T/C [2]: 93 % of control

CC1(c2cccc([N+](=O)[O-])c2)OCCO1
T/C (dose: 100.0 mg/kg/injection, schedule: Q01DX009 (ip), vehicle: other): 109 % of control | T/C (dose: 100.0 mg/kg/injection, schedule: Q04DX003 (ip), vehicle: other): 100 % of control | T/C (dose: 200.0 mg/kg/injection, schedule: Q01DX009 (ip), vehicle: other): 100 % of control | T/C (dose: 200.0 mg/kg/injection, schedule: Q04DX003 (ip), vehicle: other): 95 % of control | T/C (dose: 400.0 mg/kg/injection, schedule: Q01DX009 (ip), vehicle: other): 100 % of control | T/C (dose: 400.0 mg/kg/injection, schedule: Q04DX003 (ip), vehicle: other): 91 % of control
